Measurements published in patent US11897849B1, “N′-(2-(5-phenyl-1,3,4-oxadiazol-2-ylthio)acetoxy)-1-naphthimidamide as antimicrobial compound” (KING FAISAL UNIVERSITY, priority 2023, dated 2024).

How the values were obtained:
Bacillus cereus = experiment: Agar plate disc-diffusion, antibacterial; type: cell-based
Procedure: (§1) The agar plate disc-diffusion method was applied. […] The discs were then placed onto the surface of agar plates (nutrient agar for bacteria and Sabouraud's dextrose agar for fungi) seeded with the test organism. Each plate contained 15 of the agar medium, previously seeded with 0.2 mL of the broth culture of each organism pre-grown for 18 hours. The plates were incubated at 37° C. for 48 hours and 72 hours for fungi. The inhibition zones were measured in mm. Discs impregnated with DMSO were used as a control, and their inhibition zone was subtracted from the tested compound's actual inhibition zone.

Escherichia coli = experiment: Agar plate disc-diffusion, antibacterial; type: cell-based
Procedure: as §1

Pseudomonas aeruginosa = experiment: Agar plate disc-diffusion, antibacterial; type: cell-based
Procedure: as §1

Staphylococcus aureus = experiment: Agar plate disc-diffusion, antibacterial; type: cell-based
Procedure: as §1

Aspergillus flavus = experiment: Agar plate disc-diffusion, antifungal; type: cell-based
Procedure: as §1

[1] = system: Chrysosporium keratinophilum; experiment: Agar plate disc-diffusion, antifungal; type: cell-based
Procedure: The agar plate disc-diffusion method was applied. Sterilized filter papers (6 mm in diameter) were wetted with 10 μL of a solution of N′-(2-(5-phenyl-1,3,4-oxadiazol-2-ylthio)acetoxy)-2-naphthimidamide (3) to be tested, containing 10 mg/mL in DMSO, and the discs were allowed to air dry. The discs were then placed onto the surface of agar plates (nutrient agar for bacteria and Sabouraud's dextrose agar for fungi) seeded with the test organism. Each plate contained 15 of the agar medium, previously seeded with 0.2 mL of the broth culture of each organism pre-grown for 18 hours. The plates were incubated at 37° C. for 48 hours and 72 hours for fungi. The inhibition zones were measured in mm. Discs impregnated with DMSO were used as a control, and their inhibition zone was subtracted from the tested compound's actual inhibition zone.

[2] = B = concentration of comp. = 30.000 μL
[3] = C = concentration of comp. = 50,000 μL
[4] = A = concentration of comp. = 10,000 μL
[5] = column A (key only in Table 1: 10,000 μL)
[6] = column B (key only in Table 1: 30.000 μL)
[7] = column C (key only in Table 1: 50,000 μL)

O=C(O)c1cn(C2CC2)c2cc(N3CCNCC3)c(F)cc2c1=O [Cip., ciprofloxacin, reference compound]
inhibition zone (Bacillus cereus; A = concentration of comp.): 29 mm
inhibition zone (Bacillus cereus; [2]): 30 mm
inhibition zone (Bacillus cereus; [3]): 42 mm
inhibition zone (Escherichia coli; [4]): 30 mm
inhibition zone (Escherichia coli; [2]): 39 mm
inhibition zone (Escherichia coli; [3]): 60 mm
inhibition zone (Pseudomonas aeruginosa; [4]): 29 mm
inhibition zone (Pseudomonas aeruginosa; [2]): 30 mm
inhibition zone (Pseudomonas aeruginosa; [3]): 53 mm
inhibition zone (Staphylococcus aureus; [4]): 43 mm
inhibition zone (Staphylococcus aureus; [2]): 44 mm
inhibition zone (Staphylococcus aureus; [3]): 53 mm

N/C(=N\OC(=O)CSc1nnc(-c2ccccc2)o1)c1cccc2ccccc12 [Compound 3, N′-(2-(5-phenyl-1,3,4-oxadiazol-2-ylthio)acetoxy)-1-naphthimidamide]
inhibition zone (Bacillus cereus; A = concentration of comp.): 19 mm
inhibition zone (Bacillus cereus; [2]): 26 mm
inhibition zone (Bacillus cereus; [3]): 35 mm
inhibition zone (Escherichia coli; [4]): 35 mm
inhibition zone (Escherichia coli; [2]): 39 mm
inhibition zone (Escherichia coli; [3]): 45 mm
inhibition zone (Pseudomonas aeruginosa; [4]): 22 mm
inhibition zone (Pseudomonas aeruginosa; [2]): 30 mm
inhibition zone (Pseudomonas aeruginosa; [3]): 37 mm
inhibition zone (Staphylococcus aureus; [4]): 29 mm
inhibition zone (Staphylococcus aureus; [2]): 35 mm
inhibition zone (Staphylococcus aureus; [3]): 44 mm
inhibition zone (Aspergillus flavus; [5]): 15 mm
inhibition zone (Aspergillus flavus; [6]): 22 mm
inhibition zone (Aspergillus flavus; [7]): 30 mm
inhibition zone [1, 5]: 29 mm
inhibition zone [1, 6]: 37 mm
inhibition zone [1, 7]: 43 mm
melting point: 177 to 178 °C
